Laboratory results reported in paper PMC9998502, “Functional selectivity of EM-2 analogs at the mu-opioid receptor” (Frontiers in Pharmacology, 2023).
Like-named read-outs stand apart in the source and are kept apart here. Marks after values point to notes of the source that are not given here. Non-standard residues stand in square brackets, D forms with d. Residues, ends and D or L forms follow the SMILES beside them. Dmt = Cc1cc(O)cc(C)c1C[C@H](N)C(=O)O; d(β3hA) = C[C@@H](N)CC(=O)O

Assays:
[1] = Enzymatic degradation in rat brain homogenate; type: in vitro ADME; details: for 100 x k, rate constant of degradation: up to 60 min; for half-life at 0.25 mM: ln2/k, read-out: t1/2, degradation half-life
Experimental: Enzymatic degradation of EM-2 and the analogs was performed measuring their hydrolysis rates in the presence of rat brain homogenate. The homogenate was prepared prior to the experiment. Briefly, rat brains were homogenized in 20 volumes of Tris–HCl (50 mM, pH 7.4) using a Polytron and the obtained aliquots were stored at −80°C. In the experiment, aliquotes of brain homogenate (100 μL, 10 mg protein/mL) were incubated with 100 µL of a peptide (0.5 mM) over 0, 7.5; 15, 22.5; 30, and 60 min at 37°C, in a final volume of 200 µL. After the incubation the degradation reaction was stopped by placing the tube on ice and acidifying the content with 20 µL of HCl (1 M). The aliquots were centrifuged at 20,000 g for 10 min at 4°C. The supernatants were collected and filtered using Millex-GV syringe filters (Millipore). Then the analysis by HPLC on a Vydac C18 column (5 μm, 4.6 × 250 mm), using the solvent system of 0.1% TFA in water (A) and 80% acetonitrile in water containing 0.1% TFA (B) and a linear gradient of 0%–100% B over 25 min, was performed. Three independent experiments for each assay were carried out in duplicate. The rate constants of degradation (k) were obtained by the least square linear regression analysis of logarithmic peak areas [ln (A/AD)], where A—amount of remained peptide, AD—initial amount of peptide versus time. Degradation half-lives (t1/2) were calculated from the rate constants as ln2/k.

[2] = n-Octanol/water partition coefficient (log P); type: physicochemical; details: n-octanol / 0.05 M HEPES buffer in 0.1 M NaCl, pH 7.4
Experimental: Determination of log P was performed according to the method described by ([Liu et al., 2006]). Peptides were dissolved in 0.05 M HEPES buffer in 0.1 M NaCl, pH 7.4, then an equal volume of n-octanol was added and mixtures were vortexed for 2 min. Samples were centrifuged at 4,000 rpm for 1 min. After separation, aqueous and octanol phases were used to quantify peptide content by RP-HPLC.
Octanol phase was lyophilized and reconstituted in 80% acetonitrile in water containing 0.1% TFA before RP-HPLC. All n-octanol/buffer distribution studies were performed in triplicate.

[3] = target: T1, human recombinant mu opioid receptor (Homo sapiens, UniProt P35372); assay: Radioligand binding, [3H]DAMGO displacement, CHO cell membranes
T1 construct: purchased; host or cells: CHO cells (membranes)

human mu receptor = target: T2, human mu receptor (Homo sapiens, UniProt P35372); assay: Calcium mobilization assay, CHO mu cells expressing Gαqi5; type: cell-based; details: for mu α±SEM: intrinsic activity, Emax ratio to standard agonist EM-2
T2 construct: expressed in transfected cells; host or cells: CHO cells stably co-expressing Gαqi5

delta-opioid receptor [4] = target: T3, delta-opioid receptor (Homo sapiens, UniProt P41143); assay: Radioligand binding, [3H]deltorphin-2 displacement, CHO cell membranes; design: purchased; host or cells: CHO cells (membranes)
mu receptor = assay: Bias factor, mu-G protein vs mu-β-arrestin 2 (BRET), EM-2 as standard ligand; details: log10 units, towards G protein
delta-opioid receptor [5] = target: T3, delta-opioid receptor; assay: Calcium mobilization assay, CHO delta cells expressing GαqG66Di5; type: cell-based; design: expressed in transfected cells; host or cells: CHO cells co-expressing GαqG66Di5; details: inactive = inactive up to 10 µM; for Delta pEC50 (CL95%): calcium mobilization; for Delta α± SEM: intrinsic activity, Emax ratio to standard agonist DPDPE
[6] = target: mu receptor-G protein interaction (Homo sapiens, UniProt P35372); assay: BRET mu-G protein interaction assay (membranes of SH-SY5Y cells, mu-RLuc/Gβ1-RGFP)
Experimental: (§1) SH-SY5Y cells stably co-expressing the fusoproteins mu-RLuc and Gβ1-RGFP or mu-RLuc and β-arrestin 2-RGFP were grown in DMEM/F12 (1:1) medium supplemented with 10% FBS, 2 mM L-Glutamine, 100 μg/mL hygromycin B, 400 μg/mL G418, 100 units/mL penicillin G, 100 μg/mL streptomycin and 1 μg/mL Fungizone at 37°C in a humidified atmosphere with of 5% CO2.
Total protein in membrane preparations was determined by colorimetric method with the Quantum Protein-BCA kit (EuroClone, Pero (MI), IT) and measured using the multiplate reader Victor Nivo (PerkinElmer, Walthman, MA, United States). White opaque 96 wells microplates (PerkinElmer, Walthman, MA, United States) were used to carry out BRET assays. Cell membranes were thawed and resuspended in PBS supplemented with 0.02% BSA before the assay, and an amount of 5 μg of total protein was dispensed in each 96 well. All experiments were carried out at room temperature.
(§2) In agonism experiments, ligands were added and incubated for 5 min before microplate reading. […] BRET ratios were computed as follow: RGFPCPS/RLucCPSligand−RGFPCPS/RLucCPSvehicle
(§3) Concentration-response curves to agonists were fitted to the four-parameter logistic non-linear regression model as follows: Effect=Basal+Emax−Basal/1+10^LogEC50−Logligand×HillSlope

[7] = target: mu receptor-β-arrestin 2 interaction (Homo sapiens, UniProt P35372); assay: BRET mu-β-arrestin 2 interaction assay (living SH-SY5Y cells, mu-RLuc/β-arrestin 2-RGFP), agonism
Experimental: as §1
Mu- β-arrestin 2 interaction—Living SH-SY5Y cells expressing mu-RLuc and β-arrestin 2-RGFP were seeded at a cell density of 100,000 cells/well 24 h prior to the test. On the day of the experiment, medium was discarded, and cells were washed with PBS supplemented with 0.5 mM MgCl2, 0.9 mM CaCl2. Cells were subsequently incubated with 2 μM Prolume Purple Coelenterazine (NanoLight Technology, White Mountain, AZ; United States) for 10 min before bioluminescence reading.
as §2, §3

[8] = target: T4, human recombinant kappa opioid receptor (Homo sapiens, UniProt P41145); assay: Radioligand binding, [3H]U-69593 displacement, CHO cell membranes
T4 construct: purchased; host or cells: CHO cells (membranes)

human kappa receptor = target: T5, human kappa receptor (Homo sapiens, UniProt P41145); assay: Calcium mobilization assay, CHO kappa cells expressing Gαqi5; type: cell-based; details: inactive = inactive up to 10 µM; for Kappa pEC50 (CL95%): calcium mobilization; for Kappa α± SEM: intrinsic activity, Emax ratio to standard agonist dynorphin A
T5 construct: expressed in transfected cells; host or cells: CHO cells stably co-expressing Gαqi5

[9] = rat, pH 7.4, rat brain homogenate, 37°C
[10] = inactive = inactive up to 10 µM
[11] = [3H]DAMGO, n ≥ 3, read-out: Ki ± SEM, mu
[12] = calcium mobilization, inactive = inactive up to 10 µM, read-out: mu pEC50 (CL95%) (converted)
[13] = [3H]deltorphin-2, n ≥ 3, read-out: Ki ± SEM, Delta

Chain of mu receptor-G protein interaction (P62871 whole entry): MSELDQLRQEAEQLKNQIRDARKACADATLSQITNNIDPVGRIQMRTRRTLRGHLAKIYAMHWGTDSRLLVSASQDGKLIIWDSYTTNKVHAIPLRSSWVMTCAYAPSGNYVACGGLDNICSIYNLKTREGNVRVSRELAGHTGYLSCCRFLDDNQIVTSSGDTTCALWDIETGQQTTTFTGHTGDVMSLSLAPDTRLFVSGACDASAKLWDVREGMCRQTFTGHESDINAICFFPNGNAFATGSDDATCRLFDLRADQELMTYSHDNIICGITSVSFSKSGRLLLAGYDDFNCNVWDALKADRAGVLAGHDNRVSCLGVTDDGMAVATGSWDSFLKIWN
Chain of mu receptor-G protein interaction (P35372 whole entry): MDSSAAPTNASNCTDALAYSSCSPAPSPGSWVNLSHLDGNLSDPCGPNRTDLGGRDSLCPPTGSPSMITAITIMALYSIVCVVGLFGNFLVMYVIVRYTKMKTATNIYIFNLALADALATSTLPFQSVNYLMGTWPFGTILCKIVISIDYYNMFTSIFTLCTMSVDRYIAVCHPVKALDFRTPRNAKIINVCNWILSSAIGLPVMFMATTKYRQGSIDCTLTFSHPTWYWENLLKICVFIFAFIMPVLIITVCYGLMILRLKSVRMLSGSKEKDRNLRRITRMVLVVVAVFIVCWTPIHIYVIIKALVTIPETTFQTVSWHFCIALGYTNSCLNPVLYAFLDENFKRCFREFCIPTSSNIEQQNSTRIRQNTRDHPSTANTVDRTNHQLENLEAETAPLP
T4 sequence (P41145 whole entry): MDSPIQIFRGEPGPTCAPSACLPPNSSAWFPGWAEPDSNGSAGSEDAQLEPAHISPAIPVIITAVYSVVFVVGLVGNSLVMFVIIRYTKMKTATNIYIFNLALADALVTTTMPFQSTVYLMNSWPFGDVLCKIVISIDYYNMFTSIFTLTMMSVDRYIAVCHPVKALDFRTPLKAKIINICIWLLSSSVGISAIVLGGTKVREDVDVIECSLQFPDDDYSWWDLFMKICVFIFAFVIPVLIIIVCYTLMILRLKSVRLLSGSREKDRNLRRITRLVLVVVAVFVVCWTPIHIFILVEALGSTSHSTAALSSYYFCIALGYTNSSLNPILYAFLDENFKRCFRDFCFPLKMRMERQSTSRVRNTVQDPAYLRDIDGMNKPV
T5 sequence (P41145 whole entry): as above
T3 sequence (P41143 whole entry): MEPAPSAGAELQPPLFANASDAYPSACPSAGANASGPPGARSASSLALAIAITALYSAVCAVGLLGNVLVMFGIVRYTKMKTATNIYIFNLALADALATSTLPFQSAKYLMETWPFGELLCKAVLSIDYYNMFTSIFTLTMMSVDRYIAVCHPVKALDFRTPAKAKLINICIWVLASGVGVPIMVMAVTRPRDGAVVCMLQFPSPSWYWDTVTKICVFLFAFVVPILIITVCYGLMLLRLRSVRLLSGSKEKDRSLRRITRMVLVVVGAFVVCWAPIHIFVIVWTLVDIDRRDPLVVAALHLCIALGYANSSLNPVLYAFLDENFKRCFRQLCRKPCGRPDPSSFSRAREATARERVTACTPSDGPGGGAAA
T1 sequence (P35372 whole entry): as the sequence (P35372 whole entry) above
T2 sequence (P35372 whole entry): as above
Chain of mu receptor-β-arrestin 2 interaction (P35372 whole entry): as above

Compound	100 x k, rate constant of degradation ([1]; 37°C) [per min]	half-life at 0.25 mM [1, 9] [h]	logD [2]	Ki [3] [nM]	EC50 (human mu receptor) [nM]	mu α±SEM (human mu receptor; [10])	Ki (delta-opioid receptor [4]) [nM]	Bias factor (CL95%) (mu receptor)	Delta pEC50 (CL95%) (delta-opioid receptor [5])	Delta α± SEM (delta-opioid receptor [5])	EC50 [6] [nM]	EC50 [7] [nM]	Ki [8] [nM]	Kappa pEC50 (CL95%) (human kappa receptor)	Kappa α± SEM (human kappa receptor)	further results
Cc1cc(O)cc(C)c1C[C@H](N)C(=O)N1CCC[C@H]1C(=O)N[C@@H](Cc1ccccc1)C(=O)N[C@@H](Cc1ccccc1)C(N)=O [analog 1, Dmt-Pro-Phe-Phe-NH2]	3.31 ± 0.12	0.347 ± 0.02	2.16	0.54 ± 0.03	2.51	0.85 ± 0.02	560 ± 41	0.48 (0.34–0.62)	inactive	inactive	3.09	11.7	–	–	–	fold higher potency than EM-2 (human mu receptor; calcium mobilization, mu): 3 fold
NC(=O)[C@H](Cc1ccccc1)NC(=O)[C@H](Cc1ccccc1)NC(=O)[C@@H]1CCCN(C(=O)[C@@H](N)Cc2ccc(O)cc2)C1 [analog 4, Tyr-(R)-Nip-Phe-Phe-NH2]	1.05 ± 0.08	–	1.68	–	–	0.99 ± 0.04	–	−0.02 (−0.04-0.00)	inactive	inactive	11.2	43.7	> 1000	inactive	inactive	half-life at 0.25 mM ([1]; pH 7.4, 37°C): 1.09 ± 0.04 h; Ki [3, 11]: 0.85 ± 0.17 nM; EC50 (human mu receptor; [12]): 2.69 nM; Ki (delta-opioid receptor [4]; [13]): > 1000 nM; β-Arrestin 2 Emax±sem [7]: 1.30 ± 0.03
Cc1cc(O)cc(C)c1C[C@H](N)C(=O)N1CCC[C@@H](C(=O)N[C@@H](Cc2ccccc2)C(=O)N[C@@H](Cc2ccccc2)C(N)=O)C1 [analog 5, Dmt-(R)-Nip-Phe-Phe-NH2]	0.77 ± 0.06	1.49 ± 0.05	1.8	0.14 ± 0.06	0.316	1.00 ± 0.02	589 ± 28	−0.08 (−0.25-0.10)	inactive	inactive	1.1	3.63	567 ± 39	inactive	inactive	–
C[C@H](CNC(=O)[C@@H](N)Cc1ccc(O)cc1)C(=O)N[C@@H](Cc1ccccc1)C(=O)N[C@@H](Cc1ccccc1)C(N)=O [analog 6, Tyr-(R)-β ^ 2 -Ala-Phe-Phe-NH2]	1.03 ± 0.07	–	1.75	–	–	0.88 ± 0.06	–	1.35 (1.15–1.55)	inactive	inactive	417	14100	> 1000	inactive	inactive	half-life at 0.25 mM ([1]; pH 7.4, 37°C): 1.11 ± 0.045 h; Ki [3, 11]: 46.8 ± 5.18 nM; EC50 (human mu receptor; [12]): 30.2 nM; Ki (delta-opioid receptor [4]; [13]): > 1000 nM; β-Arrestin 2 Emax±sem [7]: ∼1 ^a
Cc1cc(O)cc(C)c1C[C@H](N)C(=O)NC[C@@H](C)C(=O)N[C@@H](Cc1ccccc1)C(=O)N[C@@H](Cc1ccccc1)C(N)=O [analog 7, Dmt-(R)-β ^ 2 -Ala-Phe-Phe-NH2]	0.51 ± 0.03	2.26 ± 0.0717	2.33	0.31 ± 0.09	0.692	0.95 ± 0.03	571 ± 55	0.67 (0.49–0.84)	inactive	inactive	4.57	19.1	807 ± 46	inactive	inactive	–
C[C@H](CC(=O)N[C@@H](Cc1ccccc1)C(=O)N[C@@H](Cc1ccccc1)C(N)=O)NC(=O)[C@@H](N)Cc1ccc(O)cc1 [analog 8, Tyr-(R)-β ^ 3 -Ala-Phe-Phe-NH2] (H-Y[d(β3hA)]FF-NH2; N-terminus assumed)	0.82 ± 0.04	1.4 ± 0.065	1.71	0.44 ± 0.1	1	0.99 ± 0.02	> 1000	0.76 (0.55–0.98)	inactive	inactive	7.41	77.6	> 1000	inactive	inactive	–
Cc1cc(O)cc(C)c1C[C@H](N)C(=O)N[C@H](C)CC(=O)N[C@@H](Cc1ccccc1)C(=O)N[C@@H](Cc1ccccc1)C(N)=O [analog 9, Dmt-(R)-β ^ 3 -Ala-Phe-Phe-NH2] (H-[Dmt][d(β3hA)]FF-NH2; N-terminus assumed)	1.90 ± 0.04	0.605 ± 0.0467	2.09	0.14 ± 0.07	0.457	1.00 ± 0.05	286 ± 18	0.27 (0.16–0.38)	inactive	inactive	0.724	2.14	890 ± 42	inactive	inactive	–
NC(=O)[C@H](Cc1ccccc1)NC(=O)C[C@@H](Cc1cccc2ccccc12)NC(=O)[C@@H]1CCCN1C(=O)[C@@H](N)Cc1ccc(O)cc1 [analog 12, Tyr-Pro-(R)-β ^ 3 -1-Nal-Phe-NH2]	1.28 ± 0.05	0.898 ± 0.0683	3.01	–	47.9	0.97 ± 0.02	> 1000	0.23 (0.06–0.41)	inactive	inactive	77.6	145	> 1000	inactive	inactive	–
Cc1cc(O)cc(C)c1C[C@H](N)C(=O)N1CCC[C@H]1C(=O)N[C@@H](CC(=O)N[C@@H](Cc1ccccc1)C(N)=O)Cc1cccc2ccccc12 [analog 13, Dmt-Pro-(R)-β ^ 3 -1-Nal-Phe-NH2]	1.69 ± 0.07	0.68 ± 0.0667	3.16	–	3.8	0.77 ± 0.02	–	0.27 (0.20–0.34)	inactive	inactive	3.63	4.37	–	inactive	inactive	–
